US20240238327A1 (priority 2021, published 2024)

Legend:
[1] = test system: Raw 264.7 cells; assay: plasma membrane cholesterol extraction from fixed cells; type: cell-based; conditions: for plasma membrane cholesterol extraction: monomers, 20 mg/mL in PBS, 37° C., 1 hour, fixed cells
Experimental: Raw 264.7 cells were maintained in a Dulbecco's modified Eagle's medium (DMEM) containing 10% fetal bovine serum (FBS) and 1% penicillin/streptomycin. In order to suppress endocytosis of cyclodextrin and induce only plasma membrane cholesterol extraction, 1×10^5 cells were fixed at room temperature for 20 minutes using formaldehyde, and then cyclodextrin was dissolved in PBS in a concentration of 20 mg/mL and treated to the cells at 37° C. for 1 hour. The treated PBS was collected, centrifuged at a rate of 14,000 g for 30 minutes to remove cell debris and microvesicles, and then the cholesterol concentration in the supernatant was quantified using a Cholesterol Quantification Kit (Sigma Aldrich). The plasma membrane cholesterol extraction of gamma-cyclodextrins and polymers thereof was compared with alpha and beta-cyclodextrins and polymers thereof. […] The plasma membrane cholesterol extraction induced by gamma-cyclodextrins and polymers thereof was compared with alpha- and beta-cyclodextrins and polymers thereof, and the results are shown in FIG. 5.

[2] = test system: Raw 264.7 cells; assay: cytotoxicity (CCK-8 cell viability); type: cell-based; conditions: monomers, 20 mg/mL
Experimental: Raw 264.7 cells were maintained in a DMEM containing 10% FBS and 1% penicillin/streptomycin. 5×10^4 cells were dispensed in each well of a 96-well plate, and after 24 hours, the cells were treated with cyclodextrin at a concentration of 20 mg/mL. After culturing the cells at 37° C. in 5% CO2, a CCK-8 agent was added, 10 μL at a time.

[3] = cholesterol crystal dissolution; type: physicochemical; conditions: monomers; 20 mg/mL, 37° C., 2 hours; NBD-cholesterol fluorescence
Experimental: First, in order to form cholesterol crystals, a solution including 2 mg/ml of cholesterol and 0.2 mg/ml of NBD-cholesterol in ethanol was prepared, and then distilled water (30% v/v) was added to the solution to induce crystallization. The solution was completely dried under vacuum, resuspended in PBS, and sonicated for 30 seconds. 20 μL of 5 mM cholesterol was mixed with 300 μL of 20 mg/mL cyclodextrin and reacted at 37° C. for 2 hours. After centrifuging the mixture at 14,000 g for 30 minutes to remove undissolved cholesterol crystals, the supernatant was collected and the fluorescence of dissolved NBD-cholesterol was measured at 480 nm/520 nm, and the cholesterol crystal dissolution levels depending on the molecular weights of hydroxypropyl-alpha-, -beta-, -gamma-cyclodextrin monomers and polymers were confirmed.

[4] = test system: whole blood from wild-type C57/BL6 mice; assay: hemolytic activity; type: cell-based; conditions: monomers; 50 mg/ml in PBS, 37° C., 1 hour
Experimental: For hemolytic activity analysis, 30 μL of whole blood from wild-type C57/BL6 mice was mixed with 300 μL of a PBS solution containing 50 mg/ml of cyclodextrin and reacted at 37° C. for 1 hour. After centrifuging the mixture at 3,000 g for 5 minutes, the absorbance at 540 nm was measured using the supernatant.

[5] = test system: outer hair cells in the cochlea; conditions: 5 g/kg brain weight intraventricular; one week after injection
Experimental: (§1) To assess systemic toxicity, cyclodextrin dissolved in PBS was subcutaneously injected in an amount of 10 g/kg body weight to wild-type C57/BL6 mice. […] The body weight and behavioral characteristics of the mice were observed every day for a week. The behavioral characteristics of the mice were measured according to the criteria presented in Endpoints for Mouse Abdominal Tumor Models: Refinement of Current Criteria. In order to confirm toxicity to major organs, the mice were sacrificed 7 days later, and H&E staining was performed. In order to assess ototoxicity, the mice were sacrificed 7 days later, and the outer hair cells in the cochlea were quantified through microscopic observation. […] The brain weight of the mice was calculated to be about 0.4 g according to the age, and as a result, 2 mg of cyclodextrin was dissolved in 10 μL of PBS and injected. After 7 days, the outer hair cells in the cochlea were quantified through microscopic observation.
(§2) Also, the histological analysis of the major organs of the mice after one week is shown in FIG. 24, and ototoxicity of the C57BL/6 mice was evaluated one week after subcutaneously injecting 10 g/kg of cyclodextrin and intraventricularly injecting 5 g/kg brain weight of cyclodextrin. […]

[6] = test system: Raw 264.7 cells; assay: intracellular cholesterol excretion in macrophages that had taken up fluorescent cholesterol; type: cell-based; conditions: 5 mg/mL, 48 hours; PBS control set to 100%
Experimental: Raw 264.7 cells were dispensed at 5×10^4 cells per well of a 96-well plate, and after 24 hours, the cells were treated with cholesterol crystals at a concentration of 50 μM. […] The cells were cultured at 37° C. in 5% CO2 for 48 hours, and intracellular cholesterol fluorescence was analyzed using a fluorescence microscope. In addition, to investigate the effect of cyclodextrin on intracellular cholesterol metabolism, the amount of ATP-binding cassette transporter (ABCA1) involved in cholesterol excretion was quantified using a cell flow rate analyzer, and cholesteryl ester, which is a storage form of cholesterol, was quantified.

[7] = systemic toxicity (body weight, behavioral score, organ histology); conditions: 10 g/kg subcutaneous; one day after administration
Experimental: as §1, §2

Compound	plasma membrane cholesterol extraction [1] [%]	cell viability [2] [%]	cholesterol crystal dissolution [3] [%]	hemolytic activity [4] [%]	outer hair cell survival [5] [%]	amount of intracellular cholesterol [6] [%]	lowest behavioral score, average [7] [points]	level of plasma membrane cholesterol extraction (in words) ([1]; 20 mg/mL, compared with alpha- and beta-cyclodextrin monomers and polymers, or with the monomers)
CC(O)COC[C@H]1O[C@@H]2O[C@H]3[C@H](O)[C@@H](O)[C@@H](O[C@H]4[C@H](O)[C@@H](O)[C@@H](O[C@H]5[C@H](O)[C@@H](O)[C@@H](O[C@H]6[C@H](O)[C@@H](O)[C@@H](O[C@H]7[C@H](O)[C@@H](O)[C@@H](O[C@H]8[C@H](O)[C@@H](O)[C@@H](O[C@H]1[C@H](O)[C@H]2O)O[C@@H]8COCC(C)O)O[C@@H]7COCC(C)O)O[C@@H]6COCC(C)O)O[C@@H]5COCC(C)O)O[C@@H]4COCC(C)O)O[C@@H]3COCC(C)O (stereo partly drawn) [hydroxypropyl-beta-cyclodextrin]	45	9.6	32.3	97.1	27.5	80.5	–	–
cyclodextrin	–	–	–	–	–	–	6	–
hydroxypropyl-alpha-cyclodextrin	42.8	14.2	21.9	–	–	–	–	–
hydroxypropyl-gamma-cyclodextrin	5	93.9	12.1	–	69.7	75	–	significantly low levels of cholesterol extraction
